From PubChem BioAssay AID248 (DTP/NCI, 2004)
Several values for one entry are separate records, joined by “and”; a condition that tells them apart may be missing. Equal entries are not always repeated. Toxic doses and inconclusive results are not listed. Rule as the data show it: active = T/C of 150% or more; inactive = T/C below 125%.

System: L1210 leukemia ip in BDF1 mice, survival T/C
Experiment: NCI In Vivo Anticancer Drug Screen. Data for tumor model L1210 Leukemia (intraperitoneal) in B6D2F1 (BDF1) mice
Conditions: endpoint: mean survival time, higher = longer survival
Procedure, shortened: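 Transplanted-tumor mice were given test agent; controls received vehicle only. Survival readings from the two groups were divided (treated over control).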

[1] = dose: 100.0 mg/kg/injection, schedule: Q04DX003 (ip), vehicle: Klucel (hydroxypropylcellulose) (HPC)
[2] = dose: 200.0 mg/kg/injection, schedule: Q04DX003 (ip), vehicle: Klucel (hydroxypropylcellulose) (HPC)
[3] = dose: 400.0 mg/kg/injection, schedule: Q04DX003 (ip), vehicle: Klucel (hydroxypropylcellulose) (HPC)
[4] = dose: 50.0 mg/kg/injection, schedule: Q01DX009 (ip), vehicle: Klucel (hydroxypropylcellulose) (HPC)
[5] = dose: 100.0 mg/kg/injection, schedule: Q01DX009 (ip), vehicle: Klucel (hydroxypropylcellulose) (HPC)
[6] = dose: 200.0 mg/kg/injection, schedule: Q01DX009 (ip), vehicle: Klucel (hydroxypropylcellulose) (HPC)
[7] = dose: 100.0 mg/kg/injection, schedule: Q01DX001 (ip), vehicle: Klucel (hydroxypropylcellulose) (HPC)
[8] = dose: 200.0 mg/kg/injection, schedule: Q01DX001 (ip), vehicle: Klucel (hydroxypropylcellulose) (HPC)
[9] = dose: 400.0 mg/kg/injection, schedule: Q01DX001 (ip), vehicle: Klucel (hydroxypropylcellulose) (HPC)

Measured: T/C

Cc1c(Cl)cccc1NC(=O)c1ccc(Cl)c(Cl)c1
inactive: dose: 100.0 mg/kg/injection, schedule: Q01DX009 (ip), vehicle: gum acacia 88 % of control | [1] 103 % of control | dose: 200.0 mg/kg/injection, schedule: Q01DX009 (ip), vehicle: gum acacia 88 % of control | [2] 90 % of control | dose: 400.0 mg/kg/injection, schedule: Q01DX009 (ip), vehicle: gum acacia 91 % of control | [3] 95 % of control

CCOC(=O)C1(C(=O)OCC)CCC2Nc3ccccc3C(=O)N21 (configuration not stated)
inactive: dose: 50.0 mg/kg/injection, schedule: Q04DX003 (ip), vehicle: Klucel (hydroxypropylcellulose) (HPC) 99 % of control | [1] 101 % of control | [2] 87 % of control

Cc1ccc(/C=N/N=C(N)N)cc1
inactive: dose: 15.0 mg/kg/injection, schedule: Q01DX Z (ip), vehicle: saline 104 % of control | dose: 30.0 mg/kg/injection, schedule: Q01DX Z (ip), vehicle: saline 98 % of control | dose: 30.0 mg/kg/injection, schedule: Q01DX Z (oral), vehicle: saline 99 % of control | dose: 60.0 mg/kg/injection, schedule: Q01DX Z (ip), vehicle: saline 96 % of control | dose: 60.0 mg/kg/injection, schedule: Q01DX Z (oral), vehicle: saline 94 % of control | dose: 120.0 mg/kg/injection, schedule: Q01DX Z (oral), vehicle: saline 97 % of control | dose: 240.0 mg/kg/injection, schedule: Q01DX Z (oral), vehicle: saline 100 % of control

c1ccc(-c2nnc(-c3ccccc3)o2)cc1
inactive: [4] 95 % of control | [5] 101 % of control | [6] 94 % of control

CC(=O)Nc1c2ccccc2nc2c1c(C)c(C)c1ccccc12
inactive: dose: 50.0 mg/kg/injection, schedule: Q01DX001 (ip), vehicle: Klucel (hydroxypropylcellulose) (HPC) 87 % of control | [7] 89 % of control | [8] 94 % of control | [9] 91 % of control

[Cu+2].[O-]c1ccc(Br)c2cccnc12.[O-]c1ccc(Br)c2cccnc12
inactive: dose: 25.0 mg/kg/injection, schedule: Q01DX001 (ip), vehicle: carboxymethylcellulose (CMC) 103 % of control | dose: 50.0 mg/kg/injection, schedule: Q01DX001 (ip), vehicle: carboxymethylcellulose (CMC) 105 % of control

Cc1c2ccccc2c(CSC(=N)N)c2ccccc12
active: dose: 12.5 mg/kg/injection, schedule: Q01DX009 (ip), vehicle: saline sonified 150 % of control
inactive: dose: 4.0 mg/kg/injection, schedule: Q01DX009 (ip), vehicle: saline sonified 119 % of control | dose: 4.0 mg/kg/injection, schedule: Q01DX009 (ip), vehicle: saline with Tween-80 112 % of control | dose: 4.0 mg/kg/injection, schedule: Q01DX009 (ip), vehicle: saline 120 % of control | dose: 6.25 mg/kg/injection, schedule: Q01DX009 (ip), vehicle: saline 109 % of control | dose: 6.25 mg/kg/injection, schedule: Q04DX003 (ip), vehicle: saline 98 % of control | dose: 8.0 mg/kg/injection, schedule: Q01DX009 (ip), vehicle: saline sonified 117 % of control | dose: 8.0 mg/kg/injection, schedule: Q01DX009 (ip), vehicle: saline with Tween-80 119 % of control | dose: 12.5 mg/kg/injection, schedule: Q01DX009 (ip), vehicle: saline with Tween-80 108 % of control | dose: 12.5 mg/kg/injection, schedule: Q01DX009 (ip), vehicle: saline 123 % of control | dose: 12.5 mg/kg/injection, schedule: Q04DX003 (ip), vehicle: saline 108 % of control | dose: 18.75 mg/kg/injection, schedule: Q01DX009 (ip), vehicle: saline sonified 95 % of control | dose: 18.75 mg/kg/injection, schedule: Q01DX009 (ip), vehicle: saline with Tween-80 87 % of control | dose: 25.0 mg/kg/injection, schedule: Q01DX009 (ip), vehicle: saline 93 % of control | dose: 25.0 mg/kg/injection, schedule: Q04DX003 (ip), vehicle: saline 114 % of control and 118 % of control

NCC1OCOC2C(C(=O)O)OCOC12 (configuration not stated)
inactive: dose: 50.0 mg/kg/injection, schedule: Q04DX002 (ip), vehicle: saline 101 % of control | dose: 100.0 mg/kg/injection, schedule: Q04DX002 (ip), vehicle: saline 96 % of control | dose: 200.0 mg/kg/injection, schedule: Q04DX002 (ip), vehicle: saline 101 % of control | dose: 400.0 mg/kg/injection, schedule: Q04DX002 (ip), vehicle: saline 96 % of control

CC(=O)C1CC(CC(=O)O)C1(C)C (configuration not stated)
inactive: [4] 95 % of control | [5] 100 % of control | [1] 101 % of control | [6] 97 % of control | [2] 101 % of control | [3] 97 % of control

Cc1c(C)c([N+](=O)[O-])c(/C=C/C(=O)O)c(C)c1[N+](=O)[O-]
inactive: [1] 97 % of control | [2] 86 % of control

CS(=O)(=O)OC1CCCCC1Sc1ccc(Br)cc1 (configuration not stated)
inactive: [7] 103 % of control | [1] 101 % of control | [8] 101 % of control | [2] 101 % of control | [9] 101 % of control | [3] 106 % of control

CO[C@H]1C[C@H](O[C@H]2CC[C@]3(C=O)[C@H]4CC[C@]5(C)[C@@H](C6=CC(=O)OC6)CC[C@]5(O)[C@@H]4CC[C@]3(O)C2)O[C@H](C)[C@H]1O[C@@H]1O[C@H](CO[C@@H]2O[C@H](CO)[C@@H](O)[C@H](O)[C@H]2O)[C@@H](O)[C@H](O)[C@H]1O
inactive: dose: 0.25 mg/kg/injection, schedule: Q01DX001 (sc), vehicle: steriod suspending solution 98 % of control | dose: 0.5 mg/kg/injection, schedule: Q01DX001 (sc), vehicle: steriod suspending solution 96 % of control | dose: 1.0 mg/kg/injection, schedule: Q01DX001 (sc), vehicle: steriod suspending solution 98 % of control | dose: 2.0 mg/kg/injection, schedule: Q01DX001 (sc), vehicle: steriod suspending solution 98 % of control

CCC(C)(C=O)C(C)=O (configuration not stated)
inactive: dose: 100.0 mg/kg/injection, schedule: Q04DX003 (ip), vehicle: saline 98 % of control | dose: 200.0 mg/kg/injection, schedule: Q04DX003 (ip), vehicle: saline 96 % of control | dose: 400.0 mg/kg/injection, schedule: Q04DX003 (ip), vehicle: saline 88 % of control

CCCCCCCCCC(=O)CCCCC
inactive: dose: 100.0 mg/kg/injection, schedule: Q01DX009 (ip), vehicle: other 100 % of control | dose: 200.0 mg/kg/injection, schedule: Q01DX009 (ip), vehicle: other 98 % of control | dose: 400.0 mg/kg/injection, schedule: Q01DX009 (ip), vehicle: other 93 % of control

CCOP(=O)(OCC)C1=C(P(=O)(OCC)OCC)CCCC1
inactive: dose: 9.5 mg/kg/injection, schedule: Q01DX001 (ip), vehicle: other 103 % of control | dose: 19.0 mg/kg/injection, schedule: Q01DX001 (ip), vehicle: other 105 % of control | dose: 38.0 mg/kg/injection, schedule: Q01DX001 (ip), vehicle: other 95 % of control

CCN(CC)C(=S)SC(C)C(=O)OC (configuration not stated)
inactive: dose: 100.0 mg/kg/injection, schedule: Q04DX002 (ip), vehicle: Klucel (hydroxypropylcellulose) (HPC) 96 % of control | dose: 200.0 mg/kg/injection, schedule: Q04DX002 (ip), vehicle: Klucel (hydroxypropylcellulose) (HPC) 107 % of control | dose: 400.0 mg/kg/injection, schedule: Q04DX002 (ip), vehicle: Klucel (hydroxypropylcellulose) (HPC) 103 % of control

OC1/C(=C/c2ccccc2)c2cccc3cccc1c23 (configuration not stated)
inactive: dose: 50.0 mg/kg/injection, schedule: Q01DX009 (ip), vehicle: saline with Tween-80 90 % of control | dose: 100.0 mg/kg/injection, schedule: Q01DX009 (ip), vehicle: saline with Tween-80 93 % of control | dose: 200.0 mg/kg/injection, schedule: Q01DX009 (ip), vehicle: saline with Tween-80 93 % of control
